Measurements: patent US20240025906A1 (NEURON23, INC., priority 2022, published 2024)
Where two headings read alike, the source gives them in different places.

How the values were obtained:
TYK2 JH2 = biological target: T1, TYK2 JH2 (Homo sapiens, UniProt P29597); test: TYK2 JH2 binding assay (KINOMEscan KdELECT competitive binding); conditions: TYK2 JH2 domain, read-out: Biochemical TYK2_DiscoverX_JH2_BND_Kd
T1 construct: purchased DiscoverX (KINOMEscan KdELECT service); host or cells: E. coli BL21-derived (T7 phage display) or HEK-293
In short: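 Competition binding, KdELECT format. Kinase (phage-tagged, E. coli BL21-derived host; or HEK-293, DNA-tagged) + ligand-coated streptavidin beads + cpd, 1 h RT, final DMSO 0.9%. Wash, elute 30 min with 0.5 μM non-biotinylated ligand; qPCR readout. Kd: 11-pt, 3-fold series.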

[1] = tested on: JAK1/TYK2 pSTAT5 (Tyr694/699) in THP-1 cell line; test: IFNa-stimulated JAK1/TYK2 pSTAT5 (Tyr694/699) inhibition cellular assay, AlphaLISA; type: cell-based; conditions: Homo sapiens; THP-1 cells, IFNa-stimulated, AlphaLISA (Assay B); read-out: Cellular_THP1_IFNa-pSTATS_TYK2
In short: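 THP-1 cells (2e4/well in HBSS) were preincubated with compound (8 points, 6-fold steps from 10000 nM final) for 1 h at 37 °C, then stimulated with IFNa (added at 100 ng/mL) for 30 min. Lysate pSTAT5 was read by AlphaLISA at 615 nm. IC50 came from a 4-parameter fit with bottom 0 and Hill −1.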

[2] = DiscoverX KINOMEscan KdELECT (Assay A)

T1 sequence (P29597 589-875 limits assumed): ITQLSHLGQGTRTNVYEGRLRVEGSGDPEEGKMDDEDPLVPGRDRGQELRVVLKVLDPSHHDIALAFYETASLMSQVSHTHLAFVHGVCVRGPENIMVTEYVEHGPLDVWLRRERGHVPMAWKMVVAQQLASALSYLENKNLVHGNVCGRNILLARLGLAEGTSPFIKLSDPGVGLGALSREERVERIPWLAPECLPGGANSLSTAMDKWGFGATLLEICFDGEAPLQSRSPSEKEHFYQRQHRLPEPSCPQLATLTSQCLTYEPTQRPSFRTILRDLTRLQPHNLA

Row | Kd (TYK2 JH2; [2]) | IC50 [1] | Kd (TYK2 JH2; KINOMEscan KdELECT (Assay A)) | SMILES
1 | ≤ 0.1 µM | ≤ 0.5 µM | – | [2H]C([2H])([2H])Nc1ncc(-c2nc3ccc(OC)cn3n2)c2cc(NC(=O)[C@H]3C[C@H]3F)ncc12 [Example 568, (1R,2R)-2-fluoro-N-(5-(6-methoxy-[1,2,4]triazolo[1,5-a]pyridin-2-yl)-8-((methyl-d3)amino)-2,7-naphthyridin-3-yl)cyclopropane-1-carboxamide]
2 | ≤ 0.1 µM | ≤ 0.5 µM | – | [2H]C([2H])([2H])Nc1ncc(-c2nc3ccc(OC)cn3n2)c2cc(NC(=O)[C@@H]3C[C@@H]3F)ncc12 [Example 569, (1S,2S)-2-fluoro-N-(5-(6-methoxy-[1,2,4]triazolo[1,5-a]pyridin-2-yl)-8-((methyl-d3)amino)-2,7-naphthyridin-3-yl)cyclopropane-1-carboxamide]
3 | ≤ 0.1 µM | ≤ 0.5 µM | – | [2H]C([2H])([2H])Nc1ncc(-c2nc3ccc(OC)cn3n2)c2cc(NC(=O)[C@H]3C[C@H]3C)ncc12 [Example 570, (1S,2R)—N-(5-(6-methoxy-[1,2,4]triazolo[1,5-a]pyridin-2-yl)-8-((methyl-d3)amino)-2,7-naphthyridin-3-yl)-2-methylcyclopropane-1-carboxamide]
4 | ≤ 0.1 µM | ≤ 0.5 µM | – | [2H]C([2H])([2H])Nc1ncc(-c2nc3ccc(N4CCOCC4)cn3n2)c2cc(NC(=O)C3(F)CC3)ncc12 [Example 571, 1-fluoro-N-(8-((methyl-d3)amino)-5-(6-morpholino-[1,2,4]triazolo[1,5-a]pyridin-2-yl)-2,7-naphthyridin-3-yl)cyclopropane-1-carboxamide]
5 | ≤ 0.1 µM | ≤ 0.5 µM | – | [2H]C([2H])([2H])Nc1ncc(-c2nc3ccc(N4CCOCC4)cn3n2)c2cc(NC(=O)[C@H]3C[C@H]3C)ncc12 [Example 572, (1S,2R)-2-methyl-N-(8-((methyl-d3)amino)-5-(6-morpholino-[1,2,4]triazolo[1,5-a]pyridin-2-yl)-2,7-naphthyridin-3-yl)cyclopropane-1-carboxamide]
6 | ≤ 0.1 µM | ≤ 0.5 µM | – | [2H]C([2H])([2H])Nc1ncc(-c2nc3ccc(N4CCO[C@@H](C)C4)cn3n2)c2cc(NC(=O)C3(F)CC3)ncc12 [Example 576, (S)-1-fluoro-N-(8-((methyl-d3)amino)-5-(6-(2-methylmorpholino)-[1,2,4]triazolo[1,5-a]pyridin-2-yl)-2,7-naphthyridin-3-yl)cyclopropane-1-carboxamide]
7 | ≤ 0.1 µM | > 0.5 µM | – | [2H]C([2H])([2H])Nc1ncc(-c2nc3ccc(C)cn3n2)c2cc(NC(=O)C3(F)CC3)ncc12 [Example 577, 1-fluoro-N-(8-((methyl-d3)amino)-5-(6-methyl-[1,2,4]triazolo[1,5-a]pyridin-2-yl)-2,7-naphthyridin-3-yl)cyclopropane-1-carboxamide]
8 | ≤ 0.1 µM | ≤ 0.5 µM | – | [2H]C([2H])([2H])Nc1ncc(-c2nc3ccc(C)cn3n2)c2cc(NC(=O)[C@@H]3C[C@@H]3F)ncc12 [Example 578, (1S,2S)-2-fluoro-N-(8-((methyl-d3)amino)-5-(6-methyl-[1,2,4]triazolo[1,5-a]pyridin-2-yl)-2,7-naphthyridin-3-yl)cyclopropane-1-carboxamide]
9 | ≤ 0.1 µM | ≤ 0.5 µM | – | CCNc1ncc(-c2nc3ccc(N4CCOCC4)cn3n2)c2cc(NC(=O)[C@H]3C[C@H]3C)ncc12 [Example 579, (1S,2R)—N-(8-(ethylamino)-5-(6-morpholino-[1,2,4]triazolo[1,5-a]pyridin-2-yl)-2,7-naphthyridin-3-yl)-2-methylcyclopropane-1-carboxamide]
10 | ≤ 0.1 µM | ≤ 0.5 µM | – | CCNc1ncc(-c2nc3ccc(N4CCOCC4)cn3n2)c2cc(NC(=O)C3(F)CC3)ncc12 [Example 580, N-(8-(ethylamino)-5-(6-morpholino-[1,2,4]triazolo[1,5-a]pyridin-2-yl)-2,7-naphthyridin-3-yl)-1-fluorocyclopropane-1-carboxamide]
11 | ≤ 0.1 µM | ≤ 0.5 µM | – | CCNc1ncc(-c2nc3ccc(N4CC5CN(C)CC(C4)O5)cn3n2)c2cc(NC(=O)C3CC3)ncc12 [Example 581, N-(8-(ethylamino)-5-(6-(7-methyl-9-oxa-3,7-diazabicyclo[3.3.1]nonan-3-yl)-[1,2,4]triazolo[1,5-a]pyridin-2-yl)-2,7-naphthyridin-3-yl)cyclopropanecarboxamide]
12 | ≤ 0.1 µM | ≤ 0.5 µM | – | CNc1ncc(-c2nc3ccc(N4CC5CN(C6CC6)CC(C4)O5)cn3n2)c2cc(NC(=O)C3CC3)ncc12 [Example 582, N-(5-(6-(7-cyclopropyl-9-oxa-3,7-diazabicyclo[3.3.1]nonan-3-yl)-[1,2,4]triazolo[1,5-a]pyridin-2-yl)-8-(methylamino)-2,7-naphthyridin-3-yl)cyclopropanecarboxamide]
13 | ≤ 0.1 µM | ≤ 0.5 µM | – | CNc1ncc(-c2nc3ccc(N4CC5COCC(C5)C4)cn3n2)c2cc(NC(=O)C3CC3)ncc12 [Example 583, N-(5-(6-(3-oxa-7-azabicyclo[3.3.1]nonan-7-yl)-[1,2,4]triazolo[1,5-a]pyridin-2-yl)-8-(methylamino)-2,7-naphthyridin-3-yl)cyclopropanecarboxamide]
14 | ≤ 0.1 µM | ≤ 0.5 µM | – | CNc1ncc(-c2nc3ccc(N4CC5CCC(C4)O5)cn3n2)c2cc(NC(=O)C3CC3)ncc12 [Example 584, N-(5-(6-(8-oxa-3-azabicyclo[3.2.1]octan-3-yl)-[1,2,4]triazolo[1,5-a]pyridin-2-yl)-8-(methylamino)-2,7-naphthyridin-3-yl)cyclopropanecarboxamide]
15 | ≤ 0.1 µM | ≤ 0.5 µM | – | CNc1ncc(-c2nc3ccc(N4CCOCC4)cn3n2)c2cc(Nc3ccc(C(C)(C)O)c(F)n3)ncc12 [Example 589, 2-(2-fluoro-6-((8-(methylamino)-5-(6-morpholino-[1,2,4]triazolo[1,5-a]pyridin-2-yl)-2,7-naphthyridin-3-yl)amino)pyridin-3-yl)propan-2-ol]
16 | ≤ 0.1 µM | ≤ 0.5 µM | – | CNc1ncc(-c2nc3ccc(N4CCO[C@@H](C)C4)cn3n2)c2cc(NC(=O)[C@@H]3C[C@@H]3C)ncc12 [Example 590, (1R,2S)-2-methyl-N-(8-(methylamino)-5-(6-((S)-2-methylmorpholino)-[1,2,4]triazolo[1,5-a]pyridin-2-yl)-2,7-naphthyridin-3-yl)cyclopropane-11-carboxamide]
17 | ≤ 0.1 µM | ≤ 0.5 µM | – | CNc1ncc(C#Cc2ccc(OC)cc2)c2cc(NC(=O)C3CC3)ncc12 [Example 591, N-(5-((4-methoxyphenyl)ethynyl)-8-(methylamino)-2,7-naphthyridin-3-yl)cyclopropanecarboxamide]
18 | – | > 0.5 µM | ≤ 0.1 µM | CNc1ncc(C#CC2CCOCC2)c2cc(NC(=O)C3CC3)ncc12 [Example 592, N-(8-(methylamino)-5-((tetrahydro-2H-pyran-4-yl)ethynyl)-2,7-naphthyridin-3-yl)cyclopropanecarboxamide]
19 | – | ≤ 0.5 µM | ≤ 0.1 µM | CNc1ncc(C#Cc2cccc(O)c2)c2cc(NC(=O)C3CC3)ncc12 [Example 593, N-(5-((3-hydroxyphenyl)ethynyl)-8-(methylamino)-2,7-naphthyridin-3-yl)cyclopropanecarboxamide]
20 | – | ≤ 0.5 µM | ≤ 0.1 µM | CCNc1ncc(C#Cc2ccc(OC)cn2)c2cc(NC(=O)C3CC3)ncc12 [Example 594, N-(8-(ethylamino)-5-((5-methoxypyridin-2-yl)ethynyl)-2,7-naphthyridin-3-yl)cyclopropanecarboxamide]
